{"source": "paper PMC5855875", "about": "“Teixobactin analogues reveal enduracididine to be non-essential for highly potent antibacterial activity and lipid II binding” (Chemical Science, 2017)", "note": "Bridge positions count the residues as written; N and C are the ends. Square brackets hold non-standard residues; d marks the D form. Peptide text beside a SMILES is read from it. d(aIle) = CC[C@H](C)[C@@H](N)C(=O)O; dNMeF = CN[C@H](Cc1ccccc1)C(=O)O", "data": [{"tested_on": "MRSA ATCC 33591", "assay": "microbe, parasite or virus in culture", "conditions": "ATCC 33591, 24 h", "protocol": "were grown in Mueller Hinton broth (Oxoid) in triplicate. All incubations were at 37°C. Dilutions were carried out in triplicate. 100 µl of autoclaved Mueller Hinton broth was added to wells 2-12 in a 96-well plate. 200 µl of the peptide was added to well one at a concentration of 256 µg/mL. 100µl of peptide in well one was taken up and pipetted into well two. The mixture was then mixed via pipetting before 100µl was taken up and pipetted into well three. This process was repeated up to well 11. Once […]\npeptide present. Thus, the concentrations (in µg/mL) were: 256, 128, 64, 32, 16, 8, 4, 2, 1, 0.5, 0.25 and no peptide present. Each well was then inoculated with 100µl of bacteria that had been diluted to an […]\nThis was repeated three times. The 96-well plates were then incubated at 37°C for 24 hours. The MIC was determined to be the lowest concentration at which there was no growth visible. […]\nwas repeated at an altered initial concentration of 64 µg/ml. Therefore, the new concentrations for MIC […]\nVIII. MIC testing (extended panel)\nBacterial cultures were grown overnight i n Mueller-Hinton Agar (MHA) plates and adjusted to a final concentration of 10 5 – 106 CFU/ml. 100 µl of inoculum in Meuller -Hinton broth (MHB) was mixed with equal volume of peptides (dissolved in MHB) at 2x their concentration in a 96 well plate. In parallel experiments, MIC values were determined in the media containing polysorbate 80 (0 .002%, v/v) to […]", "values": [{"smiles": "CC[C@H](C)[C@H](NC(=O)[C@@H](C)NC(C)=O)C(=O)N[C@@H](CO)C(=O)N[C@H](CCC(N)=O)C(=O)N[C@@H](C(=O)N[C@H](C(=O)N[C@@H](CO)C(=O)N[C@H]1C(=O)N[C@@H](C)C(=O)N[C@@H](CCCNC(=N)N)C(=O)N[C@@H]([C@@H](C)CC)C(=O)O[C@H]1C)[C@@H](C)CC)[C@@H](C)CC", "note": "[Compound 1, Ac-D-Ala1-Arg10-teixobactin]", "MIC": ">128 μg mL^–1"}, {"smiles": "CC[C@H](C)[C@H](NC(=O)[C@H](NC(=O)[C@@H](CCC(N)=O)NC(=O)[C@H](CO)NC(=O)[C@H](C)NC(=O)[C@@H](Cc1ccccc1)NC)[C@@H](C)CC)C(=O)N[C@@H](CO)C(=O)N[C@H]1C(=O)N[C@@H](C)C(=O)N[C@@H](CCCNC(=N)N)C(=O)N[C@@H]([C@@H](C)CC)C(=O)O[C@H]1C", "note": "[Compound 2, Ala2-Arg10-teixobactin] (H-[dNMeF]AS[dQ][d(aIle)]IS[dT]ARI; ester 8-C)", "MIC": ">128 μg mL^–1"}, {"smiles": "CC[C@H](C)[C@H](NC(=O)[C@@H](Cc1ccccc1)NC)C(=O)N[C@@H](C)C(=O)N[C@H](CCC(N)=O)C(=O)N[C@@H](C(=O)N[C@H](C(=O)N[C@@H](CO)C(=O)N[C@H]1C(=O)N[C@@H](C)C(=O)N[C@@H](CCCNC(=N)N)C(=O)N[C@@H]([C@@H](C)CC)C(=O)O[C@H]1C)[C@@H](C)CC)[C@@H](C)CC", "note": "[Compound 3, Ala3-Arg10-teixobactin] (H-[dNMeF]IA[dQ][d(aIle)]IS[dT]ARI; ester 8-C)", "MIC": "1–2 μg mL^–1"}, {"smiles": "CC[C@H](C)[C@H](NC(=O)[C@@H](Cc1ccccc1)NC)C(=O)N[C@@H](CO)C(=O)N[C@H](C)C(=O)N[C@@H](C(=O)N[C@H](C(=O)N[C@@H](CO)C(=O)N[C@H]1C(=O)N[C@@H](C)C(=O)N[C@@H](CCCNC(=N)N)C(=O)N[C@@H]([C@@H](C)CC)C(=O)O[C@H]1C)[C@@H](C)CC)[C@@H](C)CC", "note": "[Compound 4, D-Ala4-Arg10-teixobactin] (H-[dNMeF]IS[dA][d(aIle)]IS[dT]ARI; ester 8-C)", "MIC": "2–4 μg mL^–1"}, {"smiles": "CC[C@H](C)[C@H](NC(=O)[C@@H](C)NC(=O)[C@@H](CCC(N)=O)NC(=O)[C@H](CO)NC(=O)[C@@H](NC(=O)[C@@H](Cc1ccccc1)NC)[C@@H](C)CC)C(=O)N[C@@H](CO)C(=O)N[C@H]1C(=O)N[C@@H](C)C(=O)N[C@@H](CCCNC(=N)N)C(=O)N[C@@H]([C@@H](C)CC)C(=O)O[C@H]1C", "note": "[Compound 5, D-Ala5-Arg10-teixobactin] (HELM PEPTIDE1{[CN[C@H](Cc1ccccc1)C(=O)[*:2]].I.S.[dQ].[dA].I.S.[C[C@H](O[*:3])[C@@H](N[*:1])C(=O)[*:2]].A.R.I}$PEPTIDE1,PEPTIDE1,8:R3-11:R2$$$V2.0)", "MIC": "64–128 μg mL^–1"}, {"smiles": "CC[C@H](C)[C@H](NC(=O)[C@@H](Cc1ccccc1)NC)C(=O)N[C@@H](CO)C(=O)N[C@H](CCC(N)=O)C(=O)N[C@@H](C(=O)N[C@@H](C)C(=O)N[C@@H](CO)C(=O)N[C@H]1C(=O)N[C@@H](C)C(=O)N[C@@H](CCCNC(=N)N)C(=O)N[C@@H]([C@@H](C)CC)C(=O)O[C@H]1C)[C@@H](C)CC", "note": "[Compound 6, Ala6-Arg10-teixobactin] (H-[dNMeF]IS[dQ][d(aIle)]AS[dT]ARI; ester 8-C)", "MIC": ">128 μg mL^–1"}, {"smiles": "CC[C@H](C)[C@H](NC(=O)[C@@H](Cc1ccccc1)NC)C(=O)N[C@@H](CO)C(=O)N[C@H](CCC(N)=O)C(=O)N[C@@H](C(=O)N[C@H](C(=O)N[C@@H](C)C(=O)N[C@H]1C(=O)N[C@@H](C)C(=O)N[C@@H](CCCNC(=N)N)C(=O)N[C@@H]([C@@H](C)CC)C(=O)O[C@H]1C)[C@@H](C)CC)[C@@H](C)CC", "note": "[Compound 7, Ala7-Arg10-teixobactin] (H-[dNMeF]IS[dQ][d(aIle)]IA[dT]ARI; ester 8-C)", "MIC": "16–32 μg mL^–1"}]}]}
